# In US20230079045A1 (priority 2019, published 2023):
# Key:
# Type in all cases: cell-based, influenza virus
# IFV A/PR/8/34 = assay: cytopathic effect (CPE) antiviral test in MDCK cells, IFV A/PR/8/34; settings: unidentified influenza virus, PR/8, MDCK, 120 h, read-out: EC50(IFV A/PR/8/34)
# IFVA/Weiss/43 = assay: cytopathic effect (CPE) antiviral test in MDCK cells, IFVA/Weiss/43; settings: unidentified influenza virus, MDCK, 120 h, read-out: EC50(IFVA/Weiss/43), MDCK cells, CPE method, CCK-8 cell viability, 5 days
# IFVA/Mal/302/54 = assay: cytopathic effect (CPE) antiviral test in MDCK cells, IFVA/Mal/302/54; settings: unidentified influenza virus, MDCK, 120 h, read-out: EC50(IFVA/Mal/302/54), MDCK cells, CPE method, CCK-8 cell viability, 5 days
SMILES,EC50 (IFV A/PR/8/34),EC50 (IFVA/Weiss/43),EC50 (IFVA/Mal/302/54)
"O=C(Nc1ccc2nc(-c3ccnc(C(=O)N4CCN(C(c5ccccc5)c5nnn(C(F)F)n5)CC4)c3)oc2c1)[C@@H]1CC1(F)F (mixture of isomers) [Compound 103, (S)—N-(2-(2-(4-((R/S)-(2-(difluoromethyl)-2H-tetrazol-5-yl)(phenyl)methyl)piperazine-1-carbonyl)pyridin-4-yl)benzo[d]oxazol-6-yl)-2,2-difluorocyclopropane-1-carboxamide]",26 nM,7 nM,17 nM
"Cc1nnn(C(c2ccccc2)C2CCN(C(=O)c3cc(-c4nc5cc(NC(=O)[C@@H]6C[C@@H]6F)ccc5o4)ccn3)CC2)n1 (mixture of isomers) [Compound 120, (1S,2S)-2-fluoro-N-(2-(2-(4-((R/S)-(5-methyl-2H-tetrazol-2-yl)(phenyl)methyl)piperidine-1-carbonyl)pyridin-4-yl)benzo[d]oxazol-5-yl)cyclopropanecarboxamide]",12 nM,3 nM,14 nM
"O=C(Nc1ccc2oc(-c3ccnc(C(=O)N4CCN([C@H](c5ccccc5)c5nnn(C(F)F)n5)CC4)c3)nc2c1)[C@@H]1CC1(F)F [Compound 73, (S)—N-(2-(2-(4-((R)-(2-(difluoromethyl)-2H-tetrazol-5-yl)(phenyl)methyl)piperazine-1-carbonyl)pyridin-4-yl)benzo[d]oxazol-5-yl)-2,2-difluorocyclopropane-1-carboxamide]",3 nM,2 nM,6 nM
"O=C(Nc1ccc2oc(-c3ccnc(C(=O)N4CCN([C@H](c5ccccc5)c5nnn(C(F)F)n5)CC4)c3)nc2c1)[C@@H]1C[C@@H]1F [Compound 75, (1S,2S)—N-(2-(2-(4-((R)-(2-(difluoromethyl)-2H-tetrazol-5-yl)(phenyl)methyl)piperazine-1-carbonyl)pyridin-4-yl)benzo[d]oxazol-5-yl)-2-fluorocyclopropane-1-carboxamide]",2 nM,2 nM,6 nM
"O=C(Nc1ccc2oc(-c3ccnc(C(=O)N4CCN(C(c5ccccc5)c5nnn(C(F)F)n5)CC4)c3)cc2c1)[C@@H]1C[C@@H]1F (mixture of isomers) [Compound 111, (1S,2S)—N-(2-(2-(4-((R/S)-(2-(difluoromethyl)-2H-tetrazol-5-yl)(phenyl)methyl)piperazine-1-carbonyl)pyridin-4-yl)benzofuran-5-yl)-2-fluorocyclopropane-1-carboxamide]",2 nM,0.5 nM,2 nM
"Cc1nnn(C(c2ccccc2)C2CCN(C(=O)c3cc(-c4nc5cc(NC(=O)[C@@H]6C[C@@H]6F)ccc5o4)ccn3)CC2)n1 (stereo partly drawn) [Compound 85, (1S,2S)-2-fluoro-N-(2-(2-(4-((5-methyl-2H-tetrazol-2-yl)(phenyl)methyl)piperidine-1-carbonyl)pyridin-4-yl)benzo[d]oxazol-5-yl)cyclopropanecarboxamide]",4 nM,4 nM,4 nM
"Cn1nnc(C(c2ccccc2)N2CCN(C(=O)c3cc(-c4nc5cc(N6CCCC6=O)ccc5o4)ccn3)CC2)n1 (racemic) [Compound 45, (R/S)-1-(2-(2-(4-((2-methyl-2H-tetrazol-5-yl)(phenyl)methyl)piperazine-1-carbonyl)pyridin-4-yl)benzo[d]oxazol-5-yl)pyrrolidin-2-one]",27 nM,15 nM,12 nM
"CC(C)(F)C(=O)Nc1ccc2oc(-c3ccnc(C(=O)N4CCN(C(c5ccccc5)c5nnn(C(F)F)n5)CC4)c3)nc2c1 (racemic) [Compound 108, (R/S)—N-(2-(2-(4-((2-(difluoromethyl)-2H-tetrazol-5-yl)(phenyl)methyl)piperazine-1-carbonyl)pyridin-4-yl)benzo[d]oxazol-5-yl)-2-fluoro-2-methylpropanamide]",23 nM,2 nM,6 nM
